From patent publication US11185524B2 (Novus International, Inc., priority 2019, dated 2021)
Marks after values point to notes of the source that are not given here.

Experiments:
rumen microorganisms = assay: In vitro evaluation of rumen protection: degradation by rumen microorganisms in rumen fluid incubation; assay type: in vitro ADME, Holstein steers (rumen fluid donors); settings: male, Holstein, cattle, 12 h
Experimental: Schematics of the HMTBa derivatives are presented below in Table. 1. Following the methodology of Patterson and Kung (J. Dairy Sci., 1988, vol. 71, pp. 3292-3301), fermentation substrate comprising casein, cellobiose, starch, pectin, and cellulose was added at a rate of 0.45 g to 250 mL fermentation flasks. HMTBa derivatives were randomly assigned to flasks and thoroughly mixed to ensure that all compounds were incorporated into the substrate. Methionine hydroxy analog (MHA), polymer encapsulated methionine (eMet) were also included as controls, as well as a blank. A total of 28 fermentation flasks were used, resulting in 4 replicates per treatment for each of the two experiments. Three cannulated Holstein steers were utilized as rumen fluid donors. Steers were housed on pasture, allowed to graze freely, and provided free choice supplement. Approximately 1000 mL of rumen fluid and a handful of rumen contents were obtained from each steer. Rumen fluid and contents were combined in pre-heated thermoses, transported to the lab, blended using a hand blender, and strained through 8 layers of cheese cloth. Combined rumen fluid was maintained under CO2 and thoroughly mixed. […] Due to variability associated with in vitro methodology, replicates were evaluated for similarity. […] Recovery of HMTBa or methionine was determined and expressed relative to initial amount of HMTBA or methionine (active) added. […]

[1] = in vivo

Free Active recovered (rumen microorganisms) | Ruminal undegradability (estimated ruminal stability) (rumen microorganisms) | HMTBa in plasma [1] | L-methionine in plasma [1] | Methionine equivalents in plasma (sum of L-methionine, D-methionine, and HMTBa) [1] | Structure (SMILES)
439.6^c ppm | 56.64^c | – | – | – | CSCCC1OC(=O)C(CCSC)OC1=O (centres unmarked) [Cyclic Dimer, 3,6-bis(2-methylthio)ethyl-1,4-dioxane-2,5-dione]
– | – | 0.324^a μg/mL | 5.312^a μg/mL | 5.666^a μg/mL | CSCCC(O)C(=O)O (centres unmarked) [MHA, Methionine hydroxy analog]
